Measured values from US7816350B2, “Substituted [1,2,3] triazolo[4,5-D]pyrimidines as cdk inhibitors” (Institute of Experimental Botany ASCR, priority 2002, dated 2010).

Assays:
CDK9 - cyclin T1 = CDK9 - cyclin T1 (Homo sapiens, UniProt P50750); test: CDK inhibitory activity, CDK9 - cyclin T1; format: biochemical
p33^cdk2 (cyclin E) = target: T1, p33^cdk2 (cyclin E) (Homo sapiens, UniProt P24941); test: CDK inhibition assay, p33cdk2 kinase, histone H1 phosphorylation; format: biochemical
T1 construct: made in house; host or cells: Sf9 insect cells (baculovirus co-infection)
Procedure: (§1) Cyclin-dependent kinases (p34^cdc2, p33^cdk2) and cyclins (cyclin B, E) are produced in Sf9 insect cells coinfected with appropriate baculoviral constructs. The cells are harvested 68-72 hrs post infection in lysis buffer for 30 min on ice and the soluble fraction is recovered by centrifugation at 14.000 g for 10 min. The protein extract is stored at −80° C.
(§2) Lysis buffer: 50 mM Tris pH 7.4, 150 mM NaCl, 5 mM EDTA, 20 mM NaF, 1% Tween, 1 mM DTT, 0.1 mM PMSF, leupeptine, aprotonine.
(§3) To carry out experiments on kinetics under linear conditions, the final point test system for kinase activity measurement is used. The kinase is added to reaction mixture in such a way as to obtain linear activity with respect to the concentration of enzyme and with respect to time.
(§4) The p34^cdc2 and p33^cdk2 kinase inhibition determination involves the use of 1 mg/ml histone H1 (Sigma, type III-S) in the presence of 15 μM [γ-^32P]ATP ([…]) (Amersham) in a final volume of 20 μl. Kinase activity is determined at 30° C. in the kinase buffer.
(§5) Tested compounds are usually dissolved to 100 mM solutions in DMSO, final concentration of DMSO in reaction mixture never exceeds 1%. The controls contain suitable dilutions of DMSO.
(§6) After 10 min, addition 3×SDS sample buffer stops the incubations. Phosphorylated proteins are separated electrophoretically using 12.5% SDS polyacrylamide gel. The measurement of kinase activity is done using digital image analysis.
(§7) The kinase activity is expressed as a percentage of maximum activity, the apparent inhibition constants are determined by graphic analysis (FIG. 1).
(§8) Kinase buffer: 50 mM Hepes pH 7.4, 10 mM MgCl2, 5 mM EGTA, 10 mM 2-glycerolphosphate, 1 mM NaF, 1 mM DTT

MCF7 = test: In vitro cytotoxic activity, MTT assay, MCF7; format: cell-based; conditions: Homo sapiens, 72 hours
Description: One of the parameters used, as the basis for colorimetric assays is the metabolic activity of viable cells. For example, a microtiter assay, which uses the tetrazolium salt MTT, is now widely used to quantitate cell proliferation and cytotoxicity. For instance, this assay is used in drug screening programs and in chemosensitivity testing. Because only metabolically active cells cleave tetrazolium salts, these assays detect viable cells exclusively. In the case of MTT assay, yellow soluble tetrazolium salt is reduced to coloured water-insoluble formazan salt. After it is solubilized, the formazan formed can easily and rapidly be quantified in a conventional ELISA plate reader at 570 nm (maximum absorbance). The quantity of reduced formazan corresponds to number of vital cells in the culture.
Human T-lymphoblastic leukemia cell line CEM; promyelocytic HL-60 and monocytic U937 leukemias; breast carcinoma cell lines MCF-7, BT549, MDA-MB-231; glioblastoma U87MG cells; cervical carcinoma cells HELA; sarcoma cells U2OS and Saos2; hepatocellular carcinoma HepG2; mouse immortalized bone marrow macrophages B2.4 and B10A.4; P388D1 and L1210 leukemia; B16 and B16F10 melanomas were used for routine screening of compounds. The cells were maintained in Nunc/Corning 80 cm^2 plastic tissue culture flasks and cultured in cell culture medium (DMEM with 5 g/l glucose, 2 mM glutamine, 100 U/ml penicillin, 100 μg/ml streptomycin, 10% fetal calf serum and sodium bicarbonate).
The cell suspensions that were prepared and diluted according to the particular cell type and the expected target cell density (2.500-30.000 cells per well based on cell growth characteristics) were added by pipette (80 μl) into 96/well microtiter plates. Inoculates were allowed a pre-incubation period of 24 hours at 37° C. and 5% CO2 for stabilisation. Four-fold dilutions of the intended test concentration were added at time zero in 20 μl aliquots to the microtiter plate wells. Usually, test compound was evaluated at six 4-fold dilutions. In routine testing, the highest well concentration was 266.7 μM, but it can be the matter of change dependent on the agent. All drug concentrations were examined in duplicates. Incubations of cells with the test compounds lasted for 72 hours at 37° C., in 5% CO2 atmosphere and 100% humidity. At the end of incubation period, the cells were assayed by using the MTT. Ten microliters of the MTT stock solution were pipetted into each well and incubated further for 1-4 hours. After this incubation period, formazan was solubilized by addition of 100 μl/well of 10% SDS in water (pH=5.5) followed by further incubation at 37° C. overnight. The optical density (OD) was measured at 540 nm with the Labsystem iEMS Reader MF (UK). The tumour cell survival (TCS) was calculated using the following equation: TCS=(ODdrug exposed well/mean ODcontrol wells)×100%. The IC50 value, the drug concentration lethal to 50% of the tumour cells, was calculated from the obtained dose response curves (FIG. 2).

K-562 = test: In vitro cytotoxic activity, MTT assay, K-562; format: cell-based; conditions: Homo sapiens, K562, 72 hours
p34^cdc2/cyclin B (CDC2) = target: T2, p34^cdc2/cyclin B (CDC2) (Homo sapiens, UniProt P06493); test: CDK inhibition assay, p34cdc2/cyclin B kinase, histone H1 phosphorylation; format: biochemical
T2 construct: made in house; host or cells: Sf9 insect cells (baculovirus co-infection)
Procedure: as §1, §2, §3, §4, §5, §6, §7, §8

IκB-α kinase = IκB-α kinase inhibitory activity, in vitro kinase assay; format: biochemical
β-adrenergic receptors = test: Modulation of the activity of β-adrenergic receptors, isoproterenol-induced cAMP synthesis in C6 glioma; format: cell-based; conditions: cAMP synthesis induced by 5 μM (−) isoproterenol, rat C6 glioma
Procedure: Rat C6 glioma (ATCC N^o CCL107) was cultivated in monolayer in serum-free chemically defined medium containing Ham's F10/minimal essential medium (1:1 vol/vol), 2 mM L-glutamine, 1% (vol/vol) minimal essential medium vitamins (100×), 1% (vol/vol) minimal essential medium nonessential amino acids (100×), 100 U/ml penicillin, 100 μg/ml streptomycin and 30 nM sodium selenite. Incubation was at 37° C. in a humidified atmosphere. Assays were performed in the logarithmic growth phase at a density of 2.5×10^5 cells/cm^2. Intracellular cAMP synthesis was induced by addition of 5 μM (−) isoproterenol. After 30 min incubation at 37° C. the medium was removed and the cellular amount of cAMP determined using the cAMP-enzyme immunoassay kit of Amersham. The I50 is determined from a dose-response curve in duplicate (Table 7). The effect of seven 8-azapurine-analogs was measured after simultaneous addition with isoproterenol.
As P2Y1-like and A2 purinergic receptors, negatively and positively coupled to adenylate cyclase respectively, are present on rat C6 glioma it has to be determined if the modulation of the synthesis of cAMP is due to inhibition of the activation of β-adrenergic receptors by isoproterenol are due to activation of purinergic receptors.

T2 sequence (P06493 whole entry, species assumed): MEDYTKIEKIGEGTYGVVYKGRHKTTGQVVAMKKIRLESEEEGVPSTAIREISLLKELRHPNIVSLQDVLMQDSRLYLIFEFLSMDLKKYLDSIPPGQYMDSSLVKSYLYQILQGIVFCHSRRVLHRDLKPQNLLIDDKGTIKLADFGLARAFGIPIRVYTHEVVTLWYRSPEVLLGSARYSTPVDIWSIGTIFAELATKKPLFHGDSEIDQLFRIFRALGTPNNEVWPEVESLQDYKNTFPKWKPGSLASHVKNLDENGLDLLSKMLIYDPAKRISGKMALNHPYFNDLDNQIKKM
T2 sequence (P14635 whole entry partner, species assumed): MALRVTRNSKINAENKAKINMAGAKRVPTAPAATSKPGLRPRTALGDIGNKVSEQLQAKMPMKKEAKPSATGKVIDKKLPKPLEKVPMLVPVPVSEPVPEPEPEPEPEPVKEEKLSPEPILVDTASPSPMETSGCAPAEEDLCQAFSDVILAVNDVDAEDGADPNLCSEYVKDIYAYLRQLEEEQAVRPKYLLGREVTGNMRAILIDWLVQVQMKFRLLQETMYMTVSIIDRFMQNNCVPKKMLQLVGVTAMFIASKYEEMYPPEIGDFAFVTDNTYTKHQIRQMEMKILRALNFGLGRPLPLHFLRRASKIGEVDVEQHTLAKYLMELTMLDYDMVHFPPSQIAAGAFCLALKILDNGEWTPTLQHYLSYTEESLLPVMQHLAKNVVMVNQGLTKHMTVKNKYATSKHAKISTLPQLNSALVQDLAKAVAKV
Chain of CDK9 - cyclin T1 (P50750 whole entry): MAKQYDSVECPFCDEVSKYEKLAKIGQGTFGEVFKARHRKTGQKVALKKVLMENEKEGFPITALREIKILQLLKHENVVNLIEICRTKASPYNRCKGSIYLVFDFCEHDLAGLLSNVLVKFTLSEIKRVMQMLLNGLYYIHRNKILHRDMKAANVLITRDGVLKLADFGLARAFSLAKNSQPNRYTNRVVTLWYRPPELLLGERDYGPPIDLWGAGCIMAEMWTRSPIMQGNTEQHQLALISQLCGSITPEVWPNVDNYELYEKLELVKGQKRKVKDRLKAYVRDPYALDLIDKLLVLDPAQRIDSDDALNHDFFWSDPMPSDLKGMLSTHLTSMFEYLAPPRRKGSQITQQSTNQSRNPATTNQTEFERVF
Chain of CDK9 - cyclin T1 (O60563 whole entry partner): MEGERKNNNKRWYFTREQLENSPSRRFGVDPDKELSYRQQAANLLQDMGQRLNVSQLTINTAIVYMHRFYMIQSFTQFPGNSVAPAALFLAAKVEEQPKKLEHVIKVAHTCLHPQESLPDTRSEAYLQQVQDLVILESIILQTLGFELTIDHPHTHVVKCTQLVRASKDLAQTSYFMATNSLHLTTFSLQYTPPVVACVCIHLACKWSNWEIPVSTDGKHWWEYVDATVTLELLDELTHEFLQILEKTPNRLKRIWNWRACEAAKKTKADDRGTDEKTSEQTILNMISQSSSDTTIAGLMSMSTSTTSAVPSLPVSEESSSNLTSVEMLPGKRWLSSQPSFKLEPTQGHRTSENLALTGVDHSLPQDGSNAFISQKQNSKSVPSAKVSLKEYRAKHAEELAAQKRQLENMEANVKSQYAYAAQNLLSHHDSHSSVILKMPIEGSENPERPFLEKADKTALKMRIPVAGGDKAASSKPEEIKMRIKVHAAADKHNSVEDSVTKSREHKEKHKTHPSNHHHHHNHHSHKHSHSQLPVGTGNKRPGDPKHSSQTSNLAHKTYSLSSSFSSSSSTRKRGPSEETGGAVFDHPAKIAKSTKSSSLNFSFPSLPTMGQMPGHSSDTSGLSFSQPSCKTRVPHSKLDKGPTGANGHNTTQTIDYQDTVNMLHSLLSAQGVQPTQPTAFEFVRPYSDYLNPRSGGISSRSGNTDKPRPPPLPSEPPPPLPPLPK

SMILES | IC50 (CDK9 - cyclin T1) [µM] | IC50 (p33^cdk2 (cyclin E)) [µM] | IC50 (MCF7) [µM] | IC50 (K-562) [µM] | IC50 (p34^cdc2/cyclin B (CDC2)) [µM] | IC50 (IκB-α kinase) [µM] | also measured
CC(C)n1nnc2c(NCc3ccc(O)cc3)nc(NC3CCC(N)CC3)nc21 (stereo not drawn) | 1.4 | > 10 |  |  |  |  | 
CC(C)[C@H](CO)Nc1nc(Nc2ccccc2)c2nnn(C(C)C)c2n1 |  |  | 80 | 100 | 40 |  | 
CC(C)[C@H](CO)Nc1nc(Nc2cccc(Cl)c2)c2nnn(C(C)C)c2n1 |  |  | 80 | 96 | 20 | 80 | 
OC1CCC(Nc2nc(Nc3cccc(Cl)c3)c3nn[nH]c3n2)CC1 (stereo not drawn) | 8 | 0.1 |  |  |  |  | 
CC(C)n1nnc2c(Nc3cccc(Cl)c3)nc(NCCCN)nc21 |  |  | 100 | > 100 | > 100 | > 100 | 
CC(C)n1nnc2c(Nc3cccc(Cl)c3)nc(NCCCO)nc21 |  |  | > 100 | > 100 |  | > 100 | 
CC(C)n1nnc2c(Nc3cccc(Cl)c3)nc(NCCN)nc21 |  |  | 100 | > 100 | > 100 | > 100 | 
CCCCCCNc1nc(NC(CO)c2ccccc2)c2nnn(C(C)C)c2n1 (racemic) |  |  |  |  |  |  | Effect (β-adrenergic receptors; result in words): inhibition; IC50 (β-adrenergic receptors; read-out: I50): 12 ± 1 µM
CC(C)n1nnc2c(NCc3cccc(O)c3)nc(NC3CCC(N)CC3)nc21 (stereo not drawn) | 1.7 | > 10 |  |  |  |  | 
CC[C@H](CO)Nc1nc(NCc2ccc(O)cc2)c2[nH]nc(C(C)C)c2n1 |  |  |  |  |  |  | Effect, fold activation (β-adrenergic receptors): 1.2-fold activation
CC(C)C(CO)Nc1nc(NCc2ccccc2O)c2nnn(C(C)C)c2n1 (stereo not drawn) | 2.5 | 6.9 |  |  |  |  | 
CC(=O)c1ccccc1CNc1nc(N[C@@H](CO)C(C)C)nc2c1nnn2C(C)C |  |  | 40.8 | 34.9 | 25 | > 100 | 
CC(=O)Oc1cccc(CNc2nc(N[C@@H](CO)C(C)C)nc3c2nnn3C(C)C)c1 |  |  | 28.2 | 31.7 | 20 | > 100 | 
CC(C)n1nnc2c(Nc3cccc(Cl)c3)nc(N(CCO)CCO)nc21 |  |  | 100 | > 100 | 35 | > 100 | 
CC(C)n1nnc2c(Nc3cccc(Cl)c3)nc(NC3CCCCC3N)nc21 (stereo not drawn) |  |  | 8.9 | 12.2 | 7 | > 100 | 
CC(C)[C@H](CO)Nc1nc(NCc2cccc(O)c2)c2nnn(C(C)C)c2n1 |  |  | 18 | 17.5 | 8 | 80 | 
CC(C)n1nnc2c(NCc3ccccc3O)nc(NC3CCC(O)CC3)nc21 (stereo not drawn) | 9.9 | > 10 |  |  |  |  | 
CC(C)n1nnc2c(Nc3cccc(Cl)c3)nc(NC3CCC(N)CC3)nc21 (stereo not drawn) | 1.1 | 3.1 |  |  |  |  | 
CC(C)[C@H](CO)Nc1nc(NCc2ccccc2O)c2nnn(C(C)C)c2n1 |  |  | 24 | 25 | 7 | > 100 | 
